Here are results for three compounds from patent publication US20050113283A1, “Methods of treating conditions associated with an EDG-4 receptor” (priority 2002, published 2005).

In test [1] the test system is human Edg-4 receptor. Briefly: Calcium mobilization assay (FLIPR), HTC rat hepatoma cells transfected with human Edg-4. To be noted: Edg-4 relative to other Edg receptors. The test is classed as cell-based. The text has this: (§1) LPA receptors such as Edg-4, couple to calcium effector pathways, and result in increases in intracellular calcium following receptor activation (An et al., Molecular Pharmacology, 54:881-888, 1998, incorporated herein by reference). This biological response lends itself to a very efficient, high-throughput screen using a Fluorescence Imaging Plate Reader (FLIPR; Molecular Devices, Sunnyvale, Calif.). The FLIPR system is a real-time, cell-based assay system with continuous fluorescence detection using a cooled CCD camera. The FLIPR system was used to developing an Edg-4 receptor screen. Rat hepatoma cells stably expressing Edg-4 receptor were plated on 384-well plates and loaded with a calcium dye loading kit (Molecular Devices, Sunnyvale, Calif.) for 1 hour at room temperature. Cells were then placed on the FLIPR^354 (Molecular Devices, Sunnyvale, Calif.) and excited by an argon laser at 488 nm. The data for the entire 384-well plate was updated every second. An integrated robotic pipettor allowed for simultaneous compound addition into each individual well in the plate.

Test [2] concerns the target T1, PLA2-II (Crotalus atrox, UniProt P00624).
T1 construct: Source: Crotalus atrox; from tissue
T1 sequence (P00624 17-138): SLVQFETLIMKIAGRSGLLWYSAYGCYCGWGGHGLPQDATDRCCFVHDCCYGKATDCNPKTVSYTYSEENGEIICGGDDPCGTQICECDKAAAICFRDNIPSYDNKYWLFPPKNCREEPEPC
Briefly: Enzyme assay Phospholipase PLA2-II. The class given is biochemical. The note with it: 300 μM; significance >50%. The procedure:
8. Phospholipase PLA2-II (Katsumata et al., 1986, Anal. Biochem. 154:676-681).
Substrate: 0.03 μCi 1 -Palmitoyl-2-[1-^14C]oleoyl-3-phosphatidylcholine
Pre-Incubation Time/Temp: 5 minutes at 37° C.
Incubation Time/Temp: 5 minutes at 37° C.
Incubation Buffer: 0.1M glycine-NaOH, […], pH 9.0
Quantitation Method: Quantitation of [^14C]oleate
Significance Criteria: >50% of max stimulation or inhibition

The target in test [3] is T2, PLC (Bacillus cereus, UniProt P09598).
T2 construct: Source: Bacillus cereus; host or cells: Bacillus cereus
T2 sequence (P09598 39-283 limits assumed): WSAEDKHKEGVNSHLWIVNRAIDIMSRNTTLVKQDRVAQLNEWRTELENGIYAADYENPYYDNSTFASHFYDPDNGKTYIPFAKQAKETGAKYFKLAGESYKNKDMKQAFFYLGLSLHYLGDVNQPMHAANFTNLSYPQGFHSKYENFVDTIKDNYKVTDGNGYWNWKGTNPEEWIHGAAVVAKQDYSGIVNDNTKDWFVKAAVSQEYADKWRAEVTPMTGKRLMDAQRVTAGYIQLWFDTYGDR
As to the kind of experiment: Enzyme assay Phospholipase PLC. The test is classed as biochemical. To be noted: 10 μM. On the procedure: 9. Phospholipase PLC (Hergenrother et al, 1995, Anal. Biochem. 229:313-316).
Substrate: 400 μM 1,2-Dihexanoyl sn-glycerol-3-phosphocholine
Pre-Incubation Time/Temp: 10 minutes at 37° C.
Incubation Time/Temp: 5 minutes at 37 ° C.
Incubation Buffer: 0.1 M 3,3-dimethylglutaric acid, pH 7.3
Quantitation Method: Spectrophotometric quantitation of phosphorylcholine

In test [4] the target is T3, Potassium channel [KATP] (Cricetus cricetus, UniProt Q09427).
T3 construct: endogenous in cells; host or cells: HIT-T15 Syrian hamster pancreatic beta cells
T3 sequence (Q09427 whole entry): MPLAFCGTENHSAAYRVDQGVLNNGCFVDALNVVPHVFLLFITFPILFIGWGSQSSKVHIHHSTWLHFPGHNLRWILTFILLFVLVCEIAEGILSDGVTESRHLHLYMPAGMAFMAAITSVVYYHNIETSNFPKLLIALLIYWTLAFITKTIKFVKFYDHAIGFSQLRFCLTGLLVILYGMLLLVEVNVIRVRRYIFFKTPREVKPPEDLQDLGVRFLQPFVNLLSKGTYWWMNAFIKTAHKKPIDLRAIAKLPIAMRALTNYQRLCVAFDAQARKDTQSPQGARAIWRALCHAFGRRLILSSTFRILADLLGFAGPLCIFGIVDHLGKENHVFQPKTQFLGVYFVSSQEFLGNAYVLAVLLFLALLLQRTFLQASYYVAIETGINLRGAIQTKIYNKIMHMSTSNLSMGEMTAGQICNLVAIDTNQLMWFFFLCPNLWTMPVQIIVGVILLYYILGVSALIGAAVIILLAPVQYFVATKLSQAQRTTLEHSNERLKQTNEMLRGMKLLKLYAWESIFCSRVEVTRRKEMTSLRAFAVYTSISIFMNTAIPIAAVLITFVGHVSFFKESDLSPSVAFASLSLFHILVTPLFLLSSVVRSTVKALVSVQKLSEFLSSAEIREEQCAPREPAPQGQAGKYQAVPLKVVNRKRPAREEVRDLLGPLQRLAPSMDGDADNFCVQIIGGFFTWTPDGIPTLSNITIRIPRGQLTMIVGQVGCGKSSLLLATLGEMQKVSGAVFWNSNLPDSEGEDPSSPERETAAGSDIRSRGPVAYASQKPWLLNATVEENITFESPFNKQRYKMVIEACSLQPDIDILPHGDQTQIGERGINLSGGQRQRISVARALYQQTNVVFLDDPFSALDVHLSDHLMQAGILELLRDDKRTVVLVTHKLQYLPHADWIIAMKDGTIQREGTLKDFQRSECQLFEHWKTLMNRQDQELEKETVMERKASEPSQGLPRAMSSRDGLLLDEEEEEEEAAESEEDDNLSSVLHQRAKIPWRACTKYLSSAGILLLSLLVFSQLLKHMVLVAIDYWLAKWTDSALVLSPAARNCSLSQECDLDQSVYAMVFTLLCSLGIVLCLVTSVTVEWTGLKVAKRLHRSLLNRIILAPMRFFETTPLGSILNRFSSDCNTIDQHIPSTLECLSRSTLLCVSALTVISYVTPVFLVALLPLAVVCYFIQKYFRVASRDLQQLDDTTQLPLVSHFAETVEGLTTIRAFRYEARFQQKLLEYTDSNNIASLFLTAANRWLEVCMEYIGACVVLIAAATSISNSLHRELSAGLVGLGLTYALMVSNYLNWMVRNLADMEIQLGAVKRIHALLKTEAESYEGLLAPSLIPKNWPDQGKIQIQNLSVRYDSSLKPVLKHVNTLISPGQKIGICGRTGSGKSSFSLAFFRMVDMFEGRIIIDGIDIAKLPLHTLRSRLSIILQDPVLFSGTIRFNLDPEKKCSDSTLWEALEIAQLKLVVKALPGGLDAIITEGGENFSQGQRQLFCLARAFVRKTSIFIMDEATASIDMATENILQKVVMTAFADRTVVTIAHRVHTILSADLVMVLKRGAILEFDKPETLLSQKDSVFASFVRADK
Briefly: Radioligand binding Potassium Channel [KATP]. Set-up: species or system Syrian hamster. To be noted: 10 μM; significance ≧50%. On the procedure: Source: Syrian hamster pancreatic beta cells HIT-T15
Ligand: 5 nM ^3H Glyburide
Incubation Time/Temp: 2 hours at 25° C.
Incubation Buffer: 50 mM MOPS, 0.1 mM CaCl2, pH 7.4
NonSpecific Ligand: 10 μM Glyburide
Quantitation Method: Radioligand Binding
Significance Criteria: ≧50% of max stimulation or inhibition

Test [5] addresses T4, Edg-1 (Homo sapiens, UniProt P21453).
T4 construct: expressed in transfected cells; host or cells: HTC rat hepatoma cells (from the earlier reading)
Briefly: Calcium mobilization assay (FLIPR), HTC cells expressing Edg 1. The class given is cell-based. The note with it: agonist.

Test [6] addresses T5, Edg-2 (Homo sapiens, UniProt Q92633).
T5 construct: expressed in transfected cells; host or cells: HTC rat hepatoma cells (from the earlier reading)
Briefly: Calcium mobilization assay (FLIPR), HTC cells expressing Edg 2. The note with it: agonist. The test is classed as cell-based.

In test [7] the target is T6, Edg-3 (Homo sapiens, UniProt Q99500).
T6 construct: expressed in transfected cells; host or cells: HTC rat hepatoma cells (from the earlier reading)
T6 sequence (Q99500 whole entry): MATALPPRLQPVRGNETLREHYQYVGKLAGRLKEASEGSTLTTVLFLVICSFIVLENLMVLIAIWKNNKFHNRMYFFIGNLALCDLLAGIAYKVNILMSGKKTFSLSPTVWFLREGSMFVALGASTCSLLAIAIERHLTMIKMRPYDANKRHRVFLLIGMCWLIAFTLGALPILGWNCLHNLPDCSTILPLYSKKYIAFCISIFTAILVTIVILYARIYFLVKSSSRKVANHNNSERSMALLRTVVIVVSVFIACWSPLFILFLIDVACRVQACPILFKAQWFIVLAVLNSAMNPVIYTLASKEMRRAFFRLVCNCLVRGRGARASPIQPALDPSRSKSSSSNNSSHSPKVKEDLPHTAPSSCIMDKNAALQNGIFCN
Briefly: Calcium mobilization assay (FLIPR), HTC cells expressing Edg 3. To be noted: agonist. The class given is cell-based.

Test [8] concerns the target T7, human Edg-4 receptor (Homo sapiens, UniProt Q9HBW0).
T7 construct: IC50 Edg-4; other: agonist, calcium mobilization; potency relative to compound 101; calcium response (agonist)
As to the kind of experiment: Calcium mobilization assay (FLIPR), HTC rat hepatoma cells transfected with human Edg-4. The class given is cell-based.
From the text: as §1

The target of test [9] is T8, Edg-5 (Homo sapiens, UniProt O95136).
T8 construct: expressed in transfected cells; host or cells: HTC rat hepatoma cells (from the earlier reading)
T8 sequence (O95136 whole entry): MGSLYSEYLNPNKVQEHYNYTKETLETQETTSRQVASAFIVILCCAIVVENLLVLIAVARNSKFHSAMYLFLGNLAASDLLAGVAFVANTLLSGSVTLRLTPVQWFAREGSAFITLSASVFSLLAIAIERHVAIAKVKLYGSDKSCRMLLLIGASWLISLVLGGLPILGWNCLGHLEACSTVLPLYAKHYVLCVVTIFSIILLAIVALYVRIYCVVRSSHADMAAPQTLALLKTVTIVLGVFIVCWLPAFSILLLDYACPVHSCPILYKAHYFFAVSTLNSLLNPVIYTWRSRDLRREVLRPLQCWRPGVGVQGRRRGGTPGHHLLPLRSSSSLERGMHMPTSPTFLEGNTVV
Briefly: Calcium mobilization assay (FLIPR), HTC cells expressing Edg 5. The note with it: agonist. The class given is cell-based.

Test [10] addresses T9, Edg-6 (Homo sapiens, UniProt O95977).
T9 construct: expressed in transfected cells; host or cells: HTC rat hepatoma cells (from the earlier reading)
T9 sequence (O95977 1-384): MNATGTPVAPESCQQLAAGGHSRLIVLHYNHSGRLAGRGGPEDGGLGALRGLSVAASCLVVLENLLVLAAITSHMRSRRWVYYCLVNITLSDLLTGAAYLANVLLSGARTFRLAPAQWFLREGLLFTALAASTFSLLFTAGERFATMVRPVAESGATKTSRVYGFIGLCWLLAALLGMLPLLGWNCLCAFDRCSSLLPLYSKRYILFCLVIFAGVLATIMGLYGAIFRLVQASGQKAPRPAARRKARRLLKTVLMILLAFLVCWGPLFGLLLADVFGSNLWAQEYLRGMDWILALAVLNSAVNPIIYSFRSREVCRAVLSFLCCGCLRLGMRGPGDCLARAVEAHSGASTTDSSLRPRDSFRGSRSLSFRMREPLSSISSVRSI
Briefly: Calcium mobilization assay (FLIPR), HTC cells expressing Edg 6. The test is classed as cell-based. To be noted: agonist.

Test [11] deals with T10, Edg-7 (Homo sapiens, UniProt Q9UBY5).
T10 construct: expressed in transfected cells; host or cells: HTC rat hepatoma cells (from the earlier reading)
T10 sequence (Q9UBY5 1-353): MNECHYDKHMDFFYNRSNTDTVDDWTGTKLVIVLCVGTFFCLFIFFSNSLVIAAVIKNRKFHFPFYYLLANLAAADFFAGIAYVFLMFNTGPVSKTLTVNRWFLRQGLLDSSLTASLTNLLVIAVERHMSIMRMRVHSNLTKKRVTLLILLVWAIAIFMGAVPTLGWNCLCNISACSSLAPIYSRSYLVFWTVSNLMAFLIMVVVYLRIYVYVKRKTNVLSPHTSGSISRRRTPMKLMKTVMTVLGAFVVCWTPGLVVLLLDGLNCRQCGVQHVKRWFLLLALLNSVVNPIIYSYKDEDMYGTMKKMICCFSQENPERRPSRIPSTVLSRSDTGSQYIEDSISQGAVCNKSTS
As to the kind of experiment: Calcium mobilization assay (FLIPR), HTC cells expressing Edg 7. The class given is cell-based.

Test [12] deals with T11, Edg-8 (Homo sapiens, UniProt Q9H228).
T11 construct: expressed in transfected cells; host or cells: HTC rat hepatoma cells (from the earlier reading)
T11 sequence (Q9H228 whole entry): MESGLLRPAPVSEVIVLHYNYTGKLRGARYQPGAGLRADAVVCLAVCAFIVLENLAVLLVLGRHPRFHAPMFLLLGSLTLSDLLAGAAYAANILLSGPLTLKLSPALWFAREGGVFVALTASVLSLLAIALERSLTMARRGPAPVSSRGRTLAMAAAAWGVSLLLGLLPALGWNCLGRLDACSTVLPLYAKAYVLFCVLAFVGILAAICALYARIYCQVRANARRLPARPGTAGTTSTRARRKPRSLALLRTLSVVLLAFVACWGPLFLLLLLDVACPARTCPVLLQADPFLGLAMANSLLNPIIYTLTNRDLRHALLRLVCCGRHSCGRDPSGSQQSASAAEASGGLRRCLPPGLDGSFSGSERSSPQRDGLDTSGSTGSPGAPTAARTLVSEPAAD
As to the kind of experiment: Calcium mobilization assay (FLIPR), HTC cells expressing Edg 8. The test is classed as cell-based. To be noted: agonist.

Test [13] can be described thus: Calcium mobilization assay, Null. To be noted: agonist. The test is classed as cell-based.
From the text: as §1

The test system of test [14] is CaOV3 human ovarian cancer cells. As to the kind of experiment: Calcium response in CaOV3 cells. The class given is cell-based. To be noted: CaOV3, naturally express human Edg-4, FIG. 16.
The test system of test [15] is human ovarian tumor growth within the chamber. Briefly: In vivo Z-chamber study. To be noted: rats, 5 mg/kg every other day, harvested day 16, FIG. 14. Set-up: species or system rat. The procedure:
The Z-chamber assay is a fibrin-based in vivo assay, wherein fibrin and thrombin are added through a port in a two-sided chamber sealed by a nylon mesh. The chamber is implanted in the subcutaneous space of an animal and harvested for evaluation. Fibrin matrices are formed in normal wound healing and are used by tumors to sustain growth, thus Z-chambers are designed to study, for example, angiogenesis, wound healing, and tumor growth. In addition, their design is useful, for example, in studies of localized gene expression, stem cell, adenoviral, and tissue generation.
The efficacy of 101 in an in vivo tumor model was examined by Z-chamber® (SRI, Menlo Park, Calif.) study. Each tumor chamber consisted of 150-160 μl cell suspension made by suspending 190 million cells in 20 ml fibrin (4 mg/ml). Following the introduction of cell suspension, 2 units of thrombin was added into each chamber and the mixture was allowed to gel for 5-7 minutes before implantation.
Rats were anesthetized with Nembutal (35 mg/kg). The skin of rats was surgically prepared with 70% alcohol. […]
101 was dissolved in a 1 to 1 cremophor:ethanol solution and diluted 4 times with 5% dextrose on water. […] The tumor thickness was measured and compared to a negative control, i.e., chambers with no treatment, and the positive treatment. […]

T7 sequence (Q9HBW0 1-340 limits assumed): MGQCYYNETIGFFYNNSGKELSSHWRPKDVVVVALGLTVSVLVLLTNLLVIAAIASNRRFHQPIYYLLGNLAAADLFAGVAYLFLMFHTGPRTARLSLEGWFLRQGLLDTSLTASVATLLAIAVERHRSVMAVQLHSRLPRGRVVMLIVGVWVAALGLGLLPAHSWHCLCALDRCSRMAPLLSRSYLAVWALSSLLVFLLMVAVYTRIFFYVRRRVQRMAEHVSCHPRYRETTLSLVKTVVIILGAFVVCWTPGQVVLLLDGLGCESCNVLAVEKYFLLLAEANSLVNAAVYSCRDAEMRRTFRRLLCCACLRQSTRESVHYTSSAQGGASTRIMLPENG
T5 sequence (Q92633 whole entry): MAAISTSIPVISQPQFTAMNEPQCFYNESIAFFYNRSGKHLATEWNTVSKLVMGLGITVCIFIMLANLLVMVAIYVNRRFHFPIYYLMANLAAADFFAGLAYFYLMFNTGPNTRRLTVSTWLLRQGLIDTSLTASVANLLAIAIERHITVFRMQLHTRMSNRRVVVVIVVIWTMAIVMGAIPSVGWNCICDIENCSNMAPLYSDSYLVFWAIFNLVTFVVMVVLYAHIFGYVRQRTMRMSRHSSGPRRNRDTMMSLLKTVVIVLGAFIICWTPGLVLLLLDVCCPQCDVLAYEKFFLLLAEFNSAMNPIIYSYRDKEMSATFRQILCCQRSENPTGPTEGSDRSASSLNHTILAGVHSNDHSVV
T4 sequence (P21453 whole entry): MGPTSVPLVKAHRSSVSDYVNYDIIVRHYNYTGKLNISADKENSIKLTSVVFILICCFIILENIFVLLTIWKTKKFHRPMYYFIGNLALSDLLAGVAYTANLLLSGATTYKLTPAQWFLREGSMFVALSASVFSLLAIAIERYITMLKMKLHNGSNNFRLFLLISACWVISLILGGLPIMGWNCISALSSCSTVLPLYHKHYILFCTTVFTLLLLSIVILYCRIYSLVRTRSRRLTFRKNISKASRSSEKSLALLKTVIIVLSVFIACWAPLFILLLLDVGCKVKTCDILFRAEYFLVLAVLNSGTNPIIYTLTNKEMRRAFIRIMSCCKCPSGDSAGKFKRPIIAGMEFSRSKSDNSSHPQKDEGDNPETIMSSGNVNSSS

Regarding `O=C(CC(=O)C(F)(F)F)Nc1cc(-c2ccccc2)n[nH]1` [Compound 101, 4,4,4-trifluoro-3-oxo-N-(5-phenyl-2H-pyrazol-3-yl)-butyramide], in test [1] (antagonists), the “Fold-selectivity for Edg-4 (IC50)” value was more than 29.9. Moreover, in [2], the “activity at PLA2-II” value is reported as “no significant activity”. Besides, the “activity at PLC” value in test [3] is given as “no significant activity”. For the same compound, the “activity at Potassium channel [KATP]” value in test [4] is listed as “no significant activity”.

Turning to `COc1cc2c(cc1OC)C(c1c(Cl)cccc1Cl)NC(=O)C2` (stereo not drawn) [Compound 125, 1-(2,6-dichlorophenyl)-6,7-dimethoxy-1,4-dihydro-2H-isoguinolin-3-one], the half-maximal effective concentration (EC50) in test [5] is more than 25 µM; in test [6] it was more than 25 µM; in test [7], more than 25 µM; in [8] (agonist, calcium mobilization), 5.2 µM; in test [9], more than 25 µM; in [10], more than 25 µM. Further, the EC50 in [11] (agonist, calcium mobilization) was 2.5 µM; in test [12], more than 25 µM; in test [13], more than 25 µM. In [8] (HTC cells transfected with human Edg-4, FIG. 15), the “calcium response (agonist)” value is recorded as “elicits a calcium response”. For the same compound, the “Fold Selectivity for Edg-4 (EC50)” value in test [1] (agonists) was more than 4.8. Further, the “agonist activity at the Edg-7 receptor” value in test [11] is “acts as an agonist”. The “calcium response elicited by 125, inhibited by antagonist 103” value in [14] was “specificity is also observed”.

Consider `CC(=O)O[C@H]1C(=O)[C@@]2(C)[C@H]([C@H](OC(=O)c3ccccc3)[C@]3(O)C[C@H](OC(=O)[C@H](O)[C@@H](NC(=O)c4ccccc4)c4ccccc4)C(C)=C1C3(C)C)[C@]1(OC(C)=O)CO[C@@H]1C[C@@H]2O` [Taxol], for which, in [15], the “inhibition of tumor growth (positive control)” value is “inhibition of tumor growth”.
